Test results: US11548903B2, “Bicyclic thiazine and oxazine derivatives as beta-secretase inhibitors and methods of use” (AMGEN INC., priority 2016, dated 2023)
Where two headings read alike, the source gives them in different places.

How the values were obtained:
Recombinant CatD = Recombinant CatD (Homo sapiens (Human), UniProt P07339); experiment: In vitro enzymatic Cathepsin D (CatD) FRET assay; assay type: biochemical; details: read-out: Cat D Enzyme IC50
Description: In Vitro Enzymatic Cathepsin D (CatD) FRET Assay Recombinant CatD was expressed in CHO cells. The assay buffer for CatD was 0.05 M citrate pH 3.5, 10% DMSO final, 5 mM CHAPS. […] The assays was effectively started by the addition of different FRET substrates (20 nM for CatD) and the combination was incubated for one hour. The FRET assay was terminated with by addition of tris buffer, which raises the pH to neutrality, and the fluorescence was determined. The FRET substrate was a peptide with commercially available fluorophore and quencher, on opposite sides of the CatD cleavage site. The CatD substrate peptide sequence was based on sequence #1 of Table 1 from Gulnik et al., FEBS Lett. 413(2):379-384 (1997). Proteolytic cleavage of the FRET substrate released quenching of fluorescence (CatD excitation 500 nm and emission 580 nm). The in vitro CatD FRET assay data for each of the Examples is provided in Table 2, conducted by the first procedure described above. […] Thus, with this surprising selectivity profile, the compounds provided herein are believed to minimize, reduce or completely eliminate any risk of retinal atrophy and abnormal development of the eye and of the retinal pigmented epithelium as it relates to the normal function and activity of CatD.

human recombinant BACE2 = human recombinant BACE2 (Homo sapiens (Human), UniProt Q9Y5Z0); experiment: In vitro enzymatic BACE2 FRET assay; assay type: biochemical; details: read-out: BACE2 Enzyme IC50
Description: (§1) In Vitro Enzymatic BACE1 and BACE2 FRET (Fluorescence Resonance Energy Transfer) Assays […] These recombinant proteins were further purified using Ni-NTA affinity chromatography (Qiagen). […] The assay was effectively started by the addition of FRET substrate (50 nM) and the combination was incubated for one hour. The FRET assay was terminated by the addition of tris buffer, which raised the pH to neutrality, and the fluorescence was determined. The FRET substrate was a peptide with commercially available fluorophore and quencher, on opposite sides of the BACE cleavage site. The specific FRET substrate used in this assay was made by Amgen in-house. Commercially available FRET substrates, for example, the FRET substrate offered with the BACE1 FRET Assay Kit sold by ThermoFisher Scientific (Catalog Number P2985), may be used in this assay with the appropriate modifications, which are within the purview of the ability of a person with ordinary skill in the art. Proteolytic cleavage of the FRET substrate released quenching of fluorescence (excitation 488 nm and emission 590 nm).

human recombinant BACE1 = human recombinant BACE1 (Homo sapiens (Human), UniProt P56817); experiment: In vitro enzymatic BACE1 FRET assay; assay type: biochemical; details: read-out: BACE1 Enzyme IC50
Description: as §1

[1] = test system: BACE1 (Aβ40 from cells stably expressing Amyloid Precursor Protein); experiment: In vitro BACE1 cell-based assay (Aβ40 in conditioned medium, HTRF)
Description: In Vitro BACE1 Cell-Based Assay The cell-based assay measures inhibition or reduction of Aβ40 in conditioned medium of test compound treated cells expressing amyloid precursor protein. Cells stably expressing Amyloid Precursor Protein (APP) were plated at a density of 45K cells/well in 384 well plates (Corning/BioCoat 354663). The test compounds were then added to cells in 22-point dose response concentrations with the starting concentration being 62.5 μM. The compounds were diluted from stock solutions in DMSO and the final DMSO concentration of the test compounds on cells was 0.625%. The cells were cultivated overnight at 37° C. and 5% CO2 in DMEM supplemented with 10% FBS. After 24 h of incubation with the test compounds, the conditioned media was collected and the Aβ40 levels were determined using HTRF (Homogeneous Time Resolved Fluorescence). […] The HTRF to detect Aβ40 was performed in 384 well plates (Costar 3658). The antibody pair that were used to detect Aβ 40 from cell supernatants were ConfAb40 antibody (Amgen in-house) and biotinylated 6E10 (BIOLEGEND). As an alternative to ConfAb40, a commercially available antibody, Anti-beta Amyloid 1-40 antibody [BDI350] from Abcam, Cambridge, Mass. 02139-1517 (Product code: ab20068), may be used in this assay. […] The conditioned media was incubated with above antibodies and Streptavidin Allophycocyanin Conjugate for 30-60 minutes at 23° C. The final readout was performed on Envision from PerkinElmer.

[2] = Aβ40, 24 h incubation, read-out: BACE1 Cell IC50

Chain of Recombinant CatD (P07339 65-412): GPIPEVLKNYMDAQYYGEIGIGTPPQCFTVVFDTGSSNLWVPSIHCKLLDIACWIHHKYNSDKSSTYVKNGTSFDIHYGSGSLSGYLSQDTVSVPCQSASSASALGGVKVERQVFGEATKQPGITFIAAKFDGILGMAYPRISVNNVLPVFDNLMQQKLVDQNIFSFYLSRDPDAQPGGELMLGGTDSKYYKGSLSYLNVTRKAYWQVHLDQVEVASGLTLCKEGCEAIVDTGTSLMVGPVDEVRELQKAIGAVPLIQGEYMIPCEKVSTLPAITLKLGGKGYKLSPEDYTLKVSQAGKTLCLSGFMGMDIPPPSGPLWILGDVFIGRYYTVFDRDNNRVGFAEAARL
Chain of human recombinant BACE2 (Q9Y5Z0 63-518): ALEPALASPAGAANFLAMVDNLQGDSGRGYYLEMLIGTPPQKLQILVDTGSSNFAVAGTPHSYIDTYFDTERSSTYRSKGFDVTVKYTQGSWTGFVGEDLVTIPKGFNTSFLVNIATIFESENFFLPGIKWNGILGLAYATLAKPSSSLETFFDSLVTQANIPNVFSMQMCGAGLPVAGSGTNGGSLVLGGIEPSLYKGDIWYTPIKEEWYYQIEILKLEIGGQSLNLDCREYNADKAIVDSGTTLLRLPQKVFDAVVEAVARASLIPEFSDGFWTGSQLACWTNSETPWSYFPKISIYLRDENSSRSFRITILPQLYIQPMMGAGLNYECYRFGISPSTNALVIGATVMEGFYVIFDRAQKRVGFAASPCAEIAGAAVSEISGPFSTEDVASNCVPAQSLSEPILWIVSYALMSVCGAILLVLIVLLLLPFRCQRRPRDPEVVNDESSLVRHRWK
Chain of human recombinant BACE1 (P56817 46-501): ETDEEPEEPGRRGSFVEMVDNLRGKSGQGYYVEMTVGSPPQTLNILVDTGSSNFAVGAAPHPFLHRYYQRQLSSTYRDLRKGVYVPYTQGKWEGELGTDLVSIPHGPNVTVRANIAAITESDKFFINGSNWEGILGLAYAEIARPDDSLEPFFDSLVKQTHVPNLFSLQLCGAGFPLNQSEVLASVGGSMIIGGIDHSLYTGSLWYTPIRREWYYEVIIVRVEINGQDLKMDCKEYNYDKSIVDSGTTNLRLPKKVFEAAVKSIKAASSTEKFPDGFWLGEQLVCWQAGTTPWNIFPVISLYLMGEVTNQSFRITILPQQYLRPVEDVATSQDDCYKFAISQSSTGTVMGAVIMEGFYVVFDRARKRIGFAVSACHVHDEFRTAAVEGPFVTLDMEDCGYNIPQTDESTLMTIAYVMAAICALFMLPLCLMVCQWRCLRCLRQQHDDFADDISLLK

| Compound | IC50 (Recombinant CatD) | IC50 (human recombinant BACE2) | IC50 (human recombinant BACE1) | IC50 ([1]; 24 h, read-out: BACE1 Cell IC50 (μM)) | IC50 [1, 2] |
| --- | --- | --- | --- | --- | --- |
| C#CCOc1cnc(/C(F)=C/c2ccc(F)c([C@]34CN(C(=O)OC(C)(C)C)C[C@H]3CSC(N)=N4)c2)cn1 [Example 116, (4aR,7aS)-tert-butyl 2-amino-7a-(2-fluoro-5-((Z)-2-fluoro-2-(5-(prop-2-yn-1-yloxy)pyrazin-2-yl)vinyl)phenyl)-4a,5,7,7a-tetrahydropyrrolo[3,4-d][1,3]thiazine-6(4H)-carboxylate] | 28600 nM | 52 nM | 2.53 nM | 0.00188 µM |  |
| N#Cc1ccc(/C(F)=C/c2ccc(F)c([C@@]34CN(c5ncc(F)cn5)C[C@@H]3CSC(N)=N4)c2)nc1 [Example 103, 6-((Z)-2-(3-((4aS,7aR)-2-amino-6-(5-fluoropyrimidin-2-yl)-4,4a,5,6,7,7a-hexahydropyrrolo[3,4-d][1,3]thiazin-7a-yl)-4-fluorophenyl)-1-fluorovinyl)nicotinonitrile] | 246000 nM | 27.2 nM | 1.86 nM |  | 0.00545 µM |
| N#Cc1ccc(/C(F)=C/c2ccc(F)c([C@@]34CO[C@@H](C(F)(F)F)[C@@H]3CSC(N)=N4)c2)nc1 [Example 125, 6-((Z)-2-(3-((4aR,5R,7aR)-2-amino-5-(trifluoromethyl)-4a,5,7,7a-tetrahydro-4H-furo[3,4-d][1,3]thiazin-7a-yl)-4-fluorophenyl)-1-fluorovinyl)nicotinonitrile] | 30600 nM | 18000 nM | 2540 nM |  | 1.39 µM |
| COc1cnc(/C(F)=C/c2ccc(F)c([C@]34CO[C@H](C(F)(F)F)[C@H]3CSC(N)=N4)c2)cn1 [Example 136, (4aS,5S,7aS)-7a-(2-fluoro-5-((Z)-2-fluoro-2-(5-methoxypyrazin-2-yl)vinyl)phenyl)-5-(trifluoromethyl)-4a,5,7,7a-tetrahydro-4H-furo[3,4-d][1,3]thiazin-2-amine] | > 400000 nM | 6630 nM | 622 nM |  | 2.03 µM |
| COc1cnc(/C(F)=C/c2ccc(F)c([C@]34CN(c5ncc(F)cn5)C[C@H]3CSC(N)=N4)c2)cn1 [Example 108, (4aR,7aS)-7a-(2-fluoro-5-((Z)-2-fluoro-2-(5-methoxypyrazin-2-yl)vinyl)phenyl)-6-(5-fluoropyrimidin-2-yl)-4,4a,5,6,7,7a-hexahydropyrrolo[3,4-d][1,3]thiazin-2-amine] | 14800 nM | 34 nM | 2.71 nM |  | 0.016 µM |
| N#Cc1ccc(/C(F)=C/c2ccc(F)c([C@]34CN(c5ncc(F)cn5)C[C@H]3CSC(N)=N4)c2)nc1 [Example 102, 6-((Z)-2-(3-((4aR,7aS)-2-amino-6-(5-fluoropyrimidin-2-yl)-4,4a,5,6,7,7a-hexahydropyrrolo[3,4-d][1,3]thiazin-7a-yl)-4-fluorophenyl)-1-fluorovinyl)nicotinonitrile] | 118000 nM | 3.08 nM | 0.241 nM |  | 0.000682 µM |
| NC1=N[C@@]2(c3cc(/C=C(\F)c4ccc(C(F)(F)F)cn4)ccc3F)CO[C@H](C(F)(F)F)[C@H]2CS1 [Example 139, (4aS,5S,7aS)-7a-(2-fluoro-5-((Z)-2-fluoro-2-(5-(trifluoromethyl)pyridin-2-yl)vinyl)phenyl)-5-(trifluoromethyl)-4a,5,7,7a-tetrahydro-4H-furo[3,4-d][1,3]thiazin-2-amine] | > 400000 nM | 1500 nM | 15.8 nM |  | 0.117 µM |
| C#CCOc1cnc(/C(F)=C/c2ccc(F)c([C@]34CN(C(=O)CC(F)(F)F)C[C@H]3CSC(N)=N4)c2)cn1 [Example 119, 1-((4aR,7aS)-2-amino-7a-(2-fluoro-5-((Z)-2-fluoro-2-(5-(prop-2-yn-1-yloxy)pyrazin-2-yl)vinyl)phenyl)-4a,5,7,7a-tetrahydropyrrolo[3,4-d][1,3]thiazin-6(4H)-yl)-3,3,3-trifluoropropan-1-one] | 105000 nM | 510 nM | 9.45 nM |  | 0.0265 µM |
